Drawing on patent publication US5191079A, “Quinolinecarboxylic acid derivatives” (priority 1990, dated 1993), this text covers MIC, MIC90 and MIC50 for one molecule.

Assay type in all cases: cell-based
Assay [1] deals with Escherichia coli NIHJ JC-2. Description: MIC, Experiment 1. Particulars: NIHJJC2, E. coli NIHJ JC-2, Gram -, read-out: Min. inhib. concentr. (MIC). An outline of the steps: (§1)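 Minimum inhibitory concentrations come from the Japan Society of Chemotherapy procedure. For streptococci, plates were heart infusion agar with 5% defibrinated horse blood after brain heart infusion broth preculture. Non-streptococcal strains were grown in sensitivity test broth and plated on sensitivity test agar.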

The test system of assay [2] is Pseudomonas aeruginosa NCTC 10490. In words: MIC, Experiment 1. Particulars: NCTC10490, P. aeruginosa NCTC 10490, Gram -, read-out: Min. inhib. concentr. (MIC). An outline of the steps:
as §1

Assay [3] relates to Staphylococcus aureus MS-353. In words: MIC, Experiment 1. Particulars: MS353, S. aureus MS-353, Gram +, read-out: Min. inhib. concentr. (MIC). An outline of the steps: (§2)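 Stocks: 5000 μg/ml in DMSO or sterile distilled water; standard: 1000 μg/ml after water dilution. Method: Japan Society of Chemotherapy.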
Assay [4] relates to Acinetobacter calcoaceticus Ac 54. In words: MIC, Experiment 1. The following applies: AC54, A. calcoaceticus Ac 54, Gram -, read-out: Min. inhib. concentr. (MIC). Put shortly: as §1
Assay [5] concerns Staphylococcus aureus Cowan I (IID 975). Description: MIC, Experiment 1. Particulars: IID975, S. aureus Cowan I (IID 975), Gram +, read-out: Min. inhib. concentr. (MIC). Put shortly:
as §2

For assay [6], the system named is Staphylococcus aureus FDA 209P JC-1. In words: MIC, Experiment 1. The following applies: FDA209P, S. aureus FDA 209P JC-1, Gram +, read-out: Min. inhib. concentr. (MIC). An outline of the steps:
as §2

The subject of assay [7] is Staphylococcus aureus FDA 243. Description: MIC, Experiment 1. Particulars: FDA243, S. aureus FDA 243, Gram +, read-out: Min. inhib. concentr. (MIC). An outline of the steps: as §2
In assay [8] the test system is Staphylococcus aureus IID 803. In words: MIC, Experiment 1. The following applies: IID803, S. aureus IID 803, Gram +, read-out: Min. inhib. concentr. (MIC). Put shortly: as §2
In assay [9] the test system is Bacillus subtilis ATCC 6633. In words: MIC, Experiment 1. The following applies: ATCC6633, B. subtilis ATCC 6633, Gram +, read-out: Min. inhib. concentr. (MIC). Put shortly: as §2
Assay [10] relates to Streptococcus pyogenes Cook. Description: MIC, Experiment 1. The following applies: S. pyogenes Cook, Gram +, agar with 5% defibrinated horse blood, read-out: Min. inhib. concentr. (MIC). Put shortly:
as §2

Assay [11] relates to Staphylococcus aureus Terajima (IID 670). Description: MIC, Experiment 1. Particulars: IID670, S. aureus Terajima (IID 670), Gram +, read-out: Min. inhib. concentr. (MIC). An outline of the steps:
as §2

The subject of assay [12] is Klebsiella pneumoniae PCI-602. Description: MIC, Experiment 1. The following applies: PCI602, K. pneumoniae PCI-602, Gram -, read-out: Min. inhib. concentr. (MIC). Put shortly: as §1
For assay [13], the system named is Proteus mirabilis IFO 3849. In words: MIC, Experiment 1. Particulars: IFO3849, P. mirabilis IFO 3849, Gram -, read-out: Min. inhib. concentr. (MIC). An outline of the steps:
as §1

Assay [14] concerns Streptococcus pyogenes Su. Description: MIC, Experiment 1. The following applies: S. pyogenes Su, Gram +, agar with 5% defibrinated horse blood, read-out: Min. inhib. concentr. (MIC). An outline of the steps:
as §2

Assay [15] has as its system Micrococcus luteus ATCC 9341. In words: MIC, Experiment 1. Particulars: ATCC9341, M. luteus ATCC 9341, Gram +, read-out: Min. inhib. concentr. (MIC). Put shortly:
as §1

For the next assay, the system named is Bacillus cereus IAM 1029. In words: MIC, Experiment 1. Particulars: IAM1029, B. cereus IAM 1029, Gram +, read-out: Min. inhib. concentr. (MIC). An outline of the steps: as §2
Assay [16] concerns Staphylococcus aureus ATCC 9144. In words: MIC, Experiment 1. Particulars: ATCC9144, S. aureus ATCC 9144, Gram +, read-out: Min. inhib. concentr. (MIC). Put shortly: as §2
The test system of assay [17] is Streptococcus pyogenes Sv. Description: MIC, Experiment 1. Particulars: S. pyogenes Sv, Gram +, agar with 5% defibrinated horse blood, read-out: Min. inhib. concentr. (MIC). An outline of the steps:
as §2

For assay [18], the system named is Streptococcus pneumoniae IID 554. In words: MIC, Experiment 1. The following applies: IID554, S. pneumoniae IID 554, Gram +, agar with 5% defibrinated horse blood, read-out: Min. inhib. concentr. (MIC). Put shortly:
as §2

The next assay concerns Enterobacter cloacae 963. Description: MIC, Experiment 1. Particulars: E. cloacae 963, Gram -, read-out: Min. inhib. concentr. (MIC). Put shortly: as §1
Assay [19] concerns Streptococcus pneumoniae IID 552. Description: MIC, Experiment 1. The following applies: IID552, S. pneumoniae IID 552, Gram +, agar with 5% defibrinated horse blood, read-out: Min. inhib. concentr. (MIC). An outline of the steps: as §2
Assay [20] relates to clinically isolated Staphylococcus aureus. In words: In vitro antibacterial activity against clinical isolates, Experiment 2. Put shortly:
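Isolates obtained from Nov. 1988 to Jun. 1989 were first precultured in sensitivity test broth. Their minimum inhibitory concentrations were then measured on sensitivity test agar against compounds made up as 1000 μg/ml stock solutions in sterilized water.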

As a reminder, the MIC is the lowest concentration that inhibits growth of the organism. Usually MIC90 stands for the lowest concentration that inhibits either 90% of growth or 90% of the strains tested, depending on the study. By MIC50 is commonly meant an inhibitory concentration at the 50% level, which refers to growth in some studies and to a panel of isolates in others.

Structures are written as SMILES. Values after ≈ are worked out from the molar mass of the structure shown. A value given as a limit tells only on which side of the number the result lay.

In the case of `CN1Cc2csc3c(C(=O)O)c(=O)c4cc(F)c(N5CCOC(CO)C5)c1c4n23` (stereo not drawn) [Compound (B), 9,1-(Methylimino)methano-7-fluoro-8-(2-hydroxymethylmorpholino)-5-oxo-5H-thiazolo[3,2-a]quinoline-4-carboxylic acid], the minimal inhibitory concentration (MIC) is 0.1 µg/mL (≈ 0.238 µM) in assay [1]; 0.39 µg/mL (≈ 0.93 µM) in assay [2]; 0.025 µg/mL (≈ 0.0596 µM) in assay [3]; at most 0.006 µg/mL in assay [4]; 0.013 µg/mL (≈ 0.031 µM) in assay [5]; 0.013 µg/mL (≈ 0.031 µM) in assay [6]. Besides, the MIC in [7] is at most 0.006 µg/mL; in assay [8], 0.013 µg/mL (≈ 0.031 µM); in assay [9] it was at most 0.006 µg/mL; in assay [10], 0.025 µg/mL (≈ 0.0596 µM); in [11], 0.025 µg/mL (≈ 0.0596 µM); in [12] it was at most 0.006 µg/mL. The MIC in assay [13] is 0.39 µg/mL (≈ 0.93 µM); in [14], 0.025 µg/mL (≈ 0.0596 µM); in assay [15], 0.1 µg/mL (≈ 0.238 µM); in the assay with Bacillus cereus IAM 1029, 0.025 µg/mL (≈ 0.0596 µM); in [16], at most 0.006 µg/mL; in assay [17] it was 0.05 µg/mL (≈ 0.119 µM). The MIC in assay [18] was 0.05 µg/mL (≈ 0.119 µM); with Enterobacter cloacae 963, 0.2 µg/mL (≈ 0.477 µM); in assay [19], 0.025 µg/mL (≈ 0.0596 µM); in assay [20] (25 clinical strains S. aureus incl. 16 methicillin resistant) it was 0.006 to 0.78 µg/mL (≈ 0.0143 to 1.86 µM). In [20], this molecule displayed an MIC90 of 0.78 µg/mL (≈ 1.86 µM). The MIC50 in [20] (25 clinical strains S. aureus incl. 16 methicillin resistant, 50% of strains, read-out: MIC50) was 0.013 µg/mL (≈ 0.031 µM).
